From paper PMC8286840, “Identifying SARS-CoV-2 antiviral compounds by screening for small molecule inhibitors of Nsp3 papain-like protease” (Biochemical Journal, 2021)
Where a name gives a salt, the structure may show the parent alone. Read-outs that look alike come from different tables or passages of the source.

Legend:
[1] = target: T1, SARS-CoV-2 PLpro (nsp3 1564–1878) (Severe acute respiratory syndrome coronavirus 2, UniProt P0DTD1); assay: biochemical; design: FRET-quenched peptide (Pro3) cleavage by PLpro, 10 min pre-incubation, slope over 20 min, normalised to no-compound control; details: low concentration screen, read-out: % of control remaining
[2] = target: T1, SARS-CoV-2 PLpro (nsp3 1564–1878); assay: biochemical; design: FRET-quenched peptide (Pro3) cleavage by PLpro, 10 min pre-incubation, slope over 20 min, normalised to no-compound control; details: high concentration screen, read-out: % of control remaining

Structure (SMILES): CCCCC[C@H](O)/C=C/[C@H]1[C@H](O)CC(=O)[C@@H]1C/C=C\CCCC(=O)O [Prostaglandin E2]
- remaining activity at 1.25 µM ([1]; Well no.=1625): 100%
- remaining activity at 1.25 µM ([1]; Well no.=3092): 98.6%
- remaining activity at 1.25 µM ([1]; Well no.=4477): 99.7%
- remaining activity at 1.25 µM ([1]; Well no.=6151): 106%
- remaining activity at 1.25 µM ([1]; Well no.=8105): 94.3%
- remaining activity at 3.75 µM ([2]; Well no.=1625): 103%
- remaining activity at 3.75 µM ([2]; Well no.=3092): 101%
- remaining activity at 3.75 µM ([2]; Well no.=6151): 110%
- remaining activity at 3.75 µM ([2]; Well no.=8105): 95.4%

Structure (SMILES): CCCCC[C@H](O)/C=C/[C@@H]1[C@H]2C/C(=C/CCCC(=O)O)O[C@H]2C[C@H]1O [Prostaglandin I2 Na]
- remaining activity at 1.25 µM ([1]; Well no.=4483): 99%
- remaining activity at 3.75 µM ([2]; Well no.=4483): 102%

Structure (SMILES): CCCc1cc(C(N)=S)ccn1 [Prothionamide]
- remaining activity at 1.25 µM ([1]; Well no.=2147): 97%
- remaining activity at 3.75 µM ([2]; Well no.=2147): 99.4%

Structure (SMILES): O=C(O)c1ccc(O)c(O)c1 [Protocatechuic acid]
- remaining activity at 1.25 µM ([1]; Well no.=4047): 99.6%
- remaining activity at 3.75 µM ([2]; Well no.=4047): 101%

Structure (SMILES): CN1CCc2cc3c(cc2C(=O)Cc2cc4c(cc2C1)OCO4)OCO3 [Protopine]
- remaining activity at 1.25 µM ([1]; Well no.=3195): 105%
- remaining activity at 3.75 µM ([2]; Well no.=3195): 104%

Structure (SMILES): C=CC1=C(C)c2cc3[nH]c(cc4nc(cc5[nH]c(cc1n2)c(C)c5CCC(=O)O)C(CCC(=O)O)=C4C)c(C)c3C=C [Protoporphyrin IX disodium]
- remaining activity at 1.25 µM ([1]; Well no.=1207): 104%
- remaining activity at 3.75 µM ([2]; Well no.=1207): 102%

Structure (SMILES): CNCCCC1c2ccccc2C=Cc2ccccc21 [Protriptyline hydrochloride]
- remaining activity at 1.25 µM ([1]; Well no.=1209): 108%
- remaining activity at 3.75 µM ([2]; Well no.=1209): 104%

Structure (SMILES): CC(O)Cn1cnc2c1c(=O)n(C)c(=O)n2C (stereo not shown) [Proxyphylline]
- remaining activity at 1.25 µM ([1]; Well no.=6220): 94.5%
- remaining activity at 1.25 µM ([1]; Well no.=8073): 105%
- remaining activity at 3.75 µM ([2]; Well no.=6220): 94%
- remaining activity at 3.75 µM ([2]; Well no.=8073): 108%

Structure (SMILES): COCCCN1CCC(NC(=O)c2cc(Cl)c(N)c3c2OCC3)CC1 [Prucalopride (succinate)]
- remaining activity at 1.25 µM ([1]; Well no.=7675): 100%
- remaining activity at 3.75 µM ([2]; Well no.=7675): 103%

Structure (SMILES): COCCCN1CCC(NC(=O)c2cc(Cl)c(N)c3c2OCC3)CC1 [Prucalopride]
- remaining activity at 1.25 µM ([1]; Well no.=4835): 99.7%
- remaining activity at 1.25 µM ([1]; Well no.=8143): 103%
- remaining activity at 3.75 µM ([2]; Well no.=4835): 98.1%
- remaining activity at 3.75 µM ([2]; Well no.=8143): 101%

Structure (SMILES): COc1ccc(C[C@H](N)C(=O)N[C@H]2[C@@H](O)[C@H](n3cnc4c(N(C)C)ncnc43)O[C@@H]2CO)cc1 [Puromycin]
- remaining activity at 1.25 µM ([1]; Well no.=1674): 98.5%
- remaining activity at 1.25 µM ([1]; Well no.=3350): 93.8%
- remaining activity at 3.75 µM ([2]; Well no.=1674): 97.6%
- remaining activity at 3.75 µM ([2]; Well no.=3350): 90.4%

Structure (SMILES): CC(C)[C@H](CO)Nc1nc(Nc2cccc(Cl)c2)c2ncn(C(C)C)c2n1 [Purvalanol A - (2R)-2-[[6-[(3-Chlorophenyl)amino]-9-(1-methylethyl)-9H-purin-2-yl]amino]-3-methyl-1-butanol]
- remaining activity at 1.25 µM ([1]; Well no.=2434): 105%
- remaining activity at 3.75 µM ([2]; Well no.=2434): 105%

Structure (SMILES): CC(C)[C@H](CO)Nc1nc(Nc2cccc(Cl)c2)c2ncn(C(C)C)c2n1 [Purvalanol A]
- remaining activity at 1.25 µM ([1]; Well no.=1050): 86.7%
- remaining activity at 1.25 µM ([1]; Well no.=2606): 91.1%
- remaining activity at 3.75 µM ([2]; Well no.=1050): 86.5%
- remaining activity at 3.75 µM ([2]; Well no.=2606): 92%

Structure (SMILES): CC(C)[C@H](CO)Nc1nc(Nc2ccc(C(=O)O)c(Cl)c2)c2ncn(C(C)C)c2n1 [Purvalanol B - (2R)-2-[[6-[(3-Chloro-4-carboxyphenyl)amino]-9-(1-methylethyl)-9H-purin-2-yl]amino]-3-methyl-1-butanol]
- remaining activity at 1.25 µM ([1]; Well no.=2436): 103%
- remaining activity at 3.75 µM ([2]; Well no.=2436): 105%

Structure (SMILES): CC(C)[C@H](CO)Nc1nc(Nc2ccc(C(=O)O)c(Cl)c2)c2ncn(C(C)C)c2n1 [Purvalanol B]
- remaining activity at 1.25 µM ([1]; Well no.=2843): 96.5%
- remaining activity at 3.75 µM ([2]; Well no.=2843): 94.9%

Structure (SMILES): NCCCCN [Putrescine dihydrochloride]
- remaining activity at 1.25 µM ([1]; Well no.=1205): 103%
- remaining activity at 3.75 µM ([2]; Well no.=1205): 102%

Structure (SMILES): O=S(=O)(NCc1ccccn1)c1ccc(Br)c2ccccc12 [Pyrabactin]
- remaining activity at 1.25 µM ([1]; Well no.=5918): 96.4%
- remaining activity at 3.75 µM ([2]; Well no.=5918): 95.8%

Structure (SMILES): NC(=O)c1cnccn1 [Pyrazinecarboxamide]
- remaining activity at 1.25 µM ([1]; Well no.=1395): 101%
- remaining activity at 3.75 µM ([2]; Well no.=1395): 99.2%

Structure (SMILES): CN(C)C(=O)Oc1ccc[n+](C)c1 [Pyridostigmine bromide]
- remaining activity at 1.25 µM ([1]; Well no.=1499): 89.1%
- remaining activity at 3.75 µM ([2]; Well no.=1499): 91.4%

Structure (SMILES): Cc1ncc(COP(=O)(O)O)c(C=O)c1O [Pyridoxal phosphate]
- remaining activity at 1.25 µM ([1]; Well no.=6389): 103%
- remaining activity at 3.75 µM ([2]; Well no.=6389): 101%

Structure (SMILES): Cc1ncc(CO)c(CO)c1O [Pyridoxine HCl]
- remaining activity at 1.25 µM ([1]; Well no.=4935): 97.7%
- remaining activity at 3.75 µM ([2]; Well no.=4935): 96.8%

Structure (SMILES): COc1ccc(CN(CCN(C)C)c2ccccn2)cc1 [Pyrilamine maleate]
- remaining activity at 1.25 µM ([1]; Well no.=814): 101%
- remaining activity at 3.75 µM ([2]; Well no.=814): 104%

Structure (SMILES): CCc1nc(N)nc(N)c1-c1ccc(Cl)cc1 [Pyrimethamine]
- remaining activity at 1.25 µM ([1]; Well no.=4708): 102%
- remaining activity at 3.75 µM ([2]; Well no.=4708): 97.2%

Structure (SMILES): Oc1ccccc1O [Pyrocatechol]
- remaining activity at 1.25 µM ([1]; Well no.=190): 101%
- remaining activity at 3.75 µM ([2]; Well no.=190): 98%

Structure (SMILES): Oc1cccc(O)c1O [Pyrogallol]
- remaining activity at 1.25 µM ([1]; Well no.=6975): 104%
- remaining activity at 3.75 µM ([2]; Well no.=6975): 105%

Structure (SMILES): O=C(O)c1ccc[nH]1 [Pyrrole-2-carboxylic acid]
- remaining activity at 1.25 µM ([1]; Well no.=6405): 93.2%
- remaining activity at 3.75 µM ([2]; Well no.=6405): 92.4%

Structure (SMILES): CC(=O)C(=O)O [Pyruvic acid]
- remaining activity at 1.25 µM ([1]; Well no.=6683): 92.9%
- remaining activity at 3.75 µM ([2]; Well no.=6683): 94.5%

Structure (SMILES): COC1=C[C@@H](C)[C@@H]2C[C@H]3OC(=O)C[C@H]4C(C)=C(OC)C(=O)[C@H]([C@@]2(C)C1=O)[C@@]34C [Quassin]
- remaining activity at 1.25 µM ([1]; Well no.=3775): 94.2%
- remaining activity at 3.75 µM ([2]; Well no.=3775): 101%

Structure (SMILES): C[C@@H]1C(=O)NC2=Nc3cccc(Cl)c3CN21 [Quazinone]
- remaining activity at 1.25 µM ([1]; Well no.=1221): 96.6%
- remaining activity at 3.75 µM ([2]; Well no.=1221): 95.5%

Structure (SMILES): O=c1c(O)c(-c2ccc(O)c(O)c2)oc2cc(O)c(O)c(O)c12 [Quercetagetin]
- remaining activity at 1.25 µM ([1]; Well no.=2589): 89%
- remaining activity at 3.75 µM ([2]; Well no.=2589): 92.1%

Structure (SMILES): O=c1c(O)c(-c2ccc(O)c(O)c2)oc2cc(O)cc(O)c12 [Quercetin dihydrate]
- remaining activity at 1.25 µM ([1]; Well no.=1315): 102%
- remaining activity at 3.75 µM ([2]; Well no.=1315): 104%

Structure (SMILES): O=c1c(O)c(-c2ccc(O)c(O)c2)oc2cc(O)cc(O)c12 [Quercetin]
- remaining activity at 1.25 µM ([1]; Well no.=5716): 91.5%
- remaining activity at 3.75 µM ([2]; Well no.=5716): 96%
